From patent US5399371A, “Low calorie substitute for an edible oil” (Henkel Corporation, priority 1993, dated 1995)

What was measured:
[1] = rat, in vivo
[2] = tested on: porcine pancreatic lipase; assay: Lipase assay: resistance to hydrolysis by porcine pancreatic lipase; format: in vitro ADME; details: pig, pH 8
Protocol: The polyglycerols in Examples III, IV, V, VI, VII, X, XI were subjected to digestion by porcine pancreatic lipase to test for resistance to hydrolysis. This test is an indicator of resistance to digestion within a mammalian digestive system.
Lipase Assay--The following materials and procedure were employed:
0.05M Tris-HCl buffered at pH=8.0 at 37° C.
60 mg porcine pancreatic lipase (Sigma Cat. No. L3126) to 5.0 ml of the above L-histidine solution.
Olive oil is used as a standard in these assays. The olive oil is from Sigma, cataloque number 01500.
1. Weigh 0.2000 grams of standard or sample into each of three 125 ml Erlenmeyer flasks.
2. To each flask add 8.0 ml of Salts solution, and 1.0 ml of the 0.05M Tris-HCl solution. Stopper each flask and place them in a shaker water bath equilibrated to 37° C. Commence agitation at 250 rpm. A New Brunswick shaker water bath was used throughout this study.
3. After the samples have equilibrated to temperature, 15-20 minutes, add 1.0 ml of enzyme to each of two flasks and 1.0 ml of histidine solution to the third flask as a blank. Stagger the addition to each flask by at least 30 seconds. The third flask in each set is the sample blank, which accounts for any free acids in the sample. Reactions should run both for 1 hour and 18 hours.
4. When reaction time has expired, add 50 ml of isopropanol to each flask. Prior to titration with 0.05-0.10N KOH in methanol, add a few drops of 1% phenolphthalein in ethanol to each flask. The exact concentration of .the potassium hydroxide solution should be standardized using KHP, potassium hydrogen phthalate. Titrate each flask to the pink endpoint and record the amount of base required to neutralize the sample. If solubility is a problem, warm sample slightly in a water bath prior to titration.
5. For olive oil, the % hydrolysis for each sample will be the mmoles KOH divided by the mmoles fatty acids available×(times) 100. An average molecular weight for olive oil of 880 g/mole can be used The corrected % hydrolysis is the % hydrolysis for the lipase-treated sample minus the % hydrolysis for the blank. For more heterogeneous samples (complex esters), the % hydrolysis can be calculated as the (AV/SAP Value)×100. The AV for each sample is (mmole KOH sample--mmole KOH blank) (56 mg KOH/mmole)/sample weight in grams. The saponification value can be determined using a method such as A.O.C.S. Official Method Cd 3-25. It is defined as the mg KOH required to saponify a gram of sample. The % hydrolysis can then be determined by taking a ratio of the measured AV after lipase treatment/SAP VALUE 100.

[3] = in vivo; cited from earlier work

Row | Substance | % Digested in Rats [1] [%] | Percent Hydrolysis 1 hr. [2] [%] | Percent Hydrolysis 18 hrs. [2] [%] | absorption / hydrolysis and metabolism in rat feeding studies [3]
1 | Polyglycerol polyoleate [Example VII] | 70 | 4.2 | 7.8 | –
2 | Polyglycerol polyoleate [Example XI] | 50 | 0.5 | 5.3 | –
3 | Propoxylated polyglycerol polyoleate [Example IV] | 26 | 2.7 | 2.3 | –
4 | Propoxylated polyglycerol polytallowate [Example V] | 18 | 2.4 | 3.8 | –
5 | decaglycerol dodecaoleate | – | – | – | substantially absorbed
6 | polyglycerol polyoleate [Example III] | 52 | 2.7 | 4.4 | –
